{"source": "patent US9170257B2", "about": "(priority 2012, dated 2015)", "key": {"in vivo [1]": {"assay": "in vivo", "format": "in vivo, Beagle dogs", "conditions": "dog, in vivo", "protocol": "(§1) The results and analysis for the study are presented for intravenous infusion dosing of a total dose of 10 mg/kg infused over a period of either 2 or 8 hours. Plasma levels of curcumin and its metabolite, THC were measured at timed intervals post-dosing.\n(§2) Bioanalysis was performed on two sets of samples, one set that was treated with phosphoric acid and one set that was not treated with phosphoric acid. […] Values that were below the limit of quantification were assigned a value of 0.\nFifteen minutes following either the 2 hour or 8 hour infusion, blood, urine and bile samples were taken, prior to the dogs being necropsied and organs removed for the isolation of tissues. Multiple samples of tissue weighing approximately 1 gram were removed and snap frozen in the presence or absence of phosphoric acid (H3PO4). For all tissue samples, the levels of curcumin and THC were determined using a method developed by the Bioanalytical Department at Nucro-Technics. […] Values that were below the limit of quantification were assigned a value of 0. […] Tissue distribution data was analyzed using, unless stated, the data from 4 dogs and are presented as the mean±standard error (S.E.)."}, "[2]": {"test_system": "MPTP-induced depletion of DA and DOPAC", "conditions": "80 mg/kg i.p.; cited from earlier work"}, "[3]": {"conditions": "rat, rodent studies; cited from earlier work"}, "in vivo [4]": {"assay": "in vivo", "format": "in vivo, Beagle dogs", "conditions": "dog, in vivo, iv, 10 mg/kg", "protocol": "as §1\nFor the 2 hour infusion, blood samples were taken at predose and 0.25, 0.5, 1.5 and at 2 hours during infusion and at 15 minutes post-infusion. For the 8 hour infusion, blood samples were taken at predose and 0.25, 0.5, 1.5, […] and at 8 hours during infusion and at 15 minutes post-infusion.\nas §2\nPlasma concentration vs. time profiles were analyzed using (unless otherwise stated) the data from 4 dogs. Plasma profiles for the test articles are presented as the mean data±SE of 4 dogs. Average plasma concentrations were used to perform the PK analysis. Plasma concentration vs. time profiles were analyzed and the PK parameters estimated using WinNonlin Version 5.2.1 employing the intravenous infusion model with first order elimination. Unless stated otherwise, the plasma concentration-time profiles for the test articles are presented as the mean data±SE of 4 dogs."}, "in vivo [5]": {"assay": "in vivo", "parameters": "species or system Beagle dogs", "conditions": "dog, in vivo; for concentration at 15 min post-infusion / concentration at 15 min / Kp at 2 h / Kp at 8 h: both sexes; for Kp at 2 h / Kp at 8 h: Kp [tissue]/[plasma]", "protocol": "The test article will be administered to 8 Beagle dogs by intravenous infusion over two hours (Part A) or eight hours (Part B) as shown in Table 6.\nMultiple samples of tissue weighing approximately 1 gram were removed and snap frozen in the presence or absence of phosphoric acid (H3PO4). For all tissue samples, the levels of curcumin and THC were determined using a method developed by the Bioanalytical Department at Nucro-Technics. […] Values that were below the limit of quantification were assigned a value of 0. […] Tissue distribution data was analyzed using, unless stated, the data from 4 dogs and are presented as the mean±standard error (S.E.)."}}}
{"smiles": "COc1cc(/C=C/C(=O)CC(=O)/C=C/c2ccc(O)c(OC)c2)ccc1O", "note": "[Curcumin, 1,7-bis(4-hydroxy-3-methoxyphenyl)-1,6-heptadiene-3,5-dione, reference compound]", "values": [{"measurement": "concentration at 15 min", "setting": "in vivo [1]; both sexes, Beagle, Plasma level", "result": 0, "unit": "ng/mL"}, {"measurement": "Plasma level", "setting": "in vivo [1]; both, beagle, 15 min", "result": "0 ± 0", "unit": "ng/mL"}, {"measurement": "MPTP-induced depletion of DA and DOPAC", "setting": "[2]", "result": "significantly reversed"}, {"measurement": "Kp values", "setting": "[3]", "result": "0.06-0.25"}, {"measurement": "clearance", "setting": "in vivo [4]; both sexes, Beagle", "result": 343, "unit": "mL/min/kg"}, {"measurement": "Cmax", "setting": "in vivo [4]; both sexes, Beagle, Cmax", "result": 15, "unit": "ng/mL"}, {"measurement": "MRT", "setting": "in vivo [4]; both sexes, beagle", "result": 36, "unit": "min"}, {"measurement": "Vd", "setting": "in vivo [4]; both sexes, beagle", "result": 12.7, "unit": "L/kg"}, {"measurement": "clearance", "setting": "in vivo [4]; both sexes, beagle", "result": 343, "unit": "mL/min/kg"}, {"measurement": "half-life", "setting": "in vivo [4]; both sexes, beagle", "result": 24, "unit": "min"}, {"measurement": "AUC", "setting": "in vivo [4]; both sexes, beagle, AUC", "result": 65, "unit": "ng·h/mL"}, {"measurement": "AUC", "setting": "in vivo [4]; both sexes, beagle, AUC (estimated PK parameter)", "result": 485, "unit": "ng·h/mL"}, {"measurement": "Cmax", "setting": "in vivo [4]; both sexes, beagle, Cmax", "result": 46, "unit": "ng/mL"}, {"measurement": "Cmax", "setting": "in vivo [4]; both sexes, beagle, Cmax (estimated PK parameter)", "result": 233, "unit": "ng/mL"}, {"measurement": "AUC", "setting": "in vivo [4]; both, Beagle", "result": 52, "unit": "ng·h/mL"}, {"measurement": "Ke", "setting": "in vivo [4]; both, Beagle", "result": 1.6, "unit": "h⁻¹"}, {"measurement": "concentration at 15 min post-infusion", "setting": "in vivo [5]; Beagle, Tissue analysis, Liver", "result": 28.4, "unit": "ng/g"}, {"measurement": "concentration at 15 min post-infusion", "setting": "in vivo [5]; Beagle, Tissue analysis, Spleen", "result": 22.9, "unit": "ng/g"}, {"measurement": "concentration at 15 min", "setting": "in vivo [5]; Beagle, Tissue level, Brain Stem", "result": 0.3, "unit": "ng/g"}, {"measurement": "concentration at 15 min", "setting": "in vivo [5]; beagle, Average tissue concentration, Bladder", "result": 0.66, "unit": "ng/g"}, {"measurement": "concentration at 15 min", "setting": "in vivo [5]; beagle, Average tissue concentration, Brainstem", "result": 0.45, "unit": "ng/g"}, {"measurement": "concentration at 15 min", "setting": "in vivo [5]; beagle, Average tissue concentration, Heart", "result": 0.47, "unit": "ng/g"}, {"measurement": "concentration at 15 min", "setting": "in vivo [5]; beagle, Average tissue concentration, Intestinal wall", "result": 1.14, "unit": "ng/g"}, {"measurement": "concentration at 15 min", "setting": "in vivo [5]; beagle, Average tissue concentration, Striatum", "result": 0.48, "unit": "ng/g"}, {"measurement": "Kp at 2 h", "setting": "in vivo [5]; beagle, Brain Stem", "result": 0.0081}, {"measurement": "Kp at 8 h", "setting": "in vivo [5]; beagle, Brain Stem", "result": 0.0389}, {"measurement": "Kp at 2 h", "setting": "in vivo [5]; beagle, Cortex, Brain", "result": 0.0134}, {"measurement": "Kp at 8 h", "setting": "in vivo [5]; beagle, Cortex, Brain", "result": 0.0544}, {"measurement": "Kp at 2 h", "setting": "in vivo [5]; beagle, Heart", "result": 0.0087}, {"measurement": "Kp at 8 h", "setting": "in vivo [5]; beagle, Heart", "result": 0.0503}, {"measurement": "Kp at 2 h", "setting": "in vivo [5]; beagle, Hippocampus", "result": 0.0016}, {"measurement": "Kp at 8 h", "setting": "in vivo [5]; beagle, Hippocampus", "result": 0.0007}, {"measurement": "Kp at 2 h", "setting": "in vivo [5]; beagle, Intestinal Wall", "result": 0.0206}, {"measurement": "Kp at 8 h", "setting": "in vivo [5]; beagle, Intestinal Wall", "result": 0.0564}, {"measurement": "Kp at 2 h", "setting": "in vivo [5]; beagle, Kidney", "result": 0.0161}, {"measurement": "Kp at 8 h", "setting": "in vivo [5]; beagle, Kidney", "result": 0.186}, {"measurement": "Kp at 2 h", "setting": "in vivo [5]; beagle, Liver", "result": 0.0329}, {"measurement": "Kp at 8 h", "setting": "in vivo [5]; beagle, Liver", "result": 1.9}, {"measurement": "Kp at 2 h", "setting": "in vivo [5]; beagle, Lungs", "result": 0.413}, {"measurement": "Kp at 8 h", "setting": "in vivo [5]; beagle, Lungs", "result": 16.8}, {"measurement": "Kp at 2 h", "setting": "in vivo [5]; beagle, Muscle", "result": 0.0034}, {"measurement": "Kp at 8 h", "setting": "in vivo [5]; beagle, Muscle", "result": 0.053}, {"measurement": "Kp at 2 h", "setting": "in vivo [5]; beagle, Pancreas", "result": 0.0166}, {"measurement": "Kp at 8 h", "setting": "in vivo [5]; beagle, Pancreas", "result": 0.191}, {"measurement": "Kp at 2 h", "setting": "in vivo [5]; beagle, Striatum", "result": 0.0087}, {"measurement": "Kp at 8 h", "setting": "in vivo [5]; beagle, Striatum", "result": 0.0329}, {"measurement": "Kp at 2 h", "setting": "in vivo [5]; beagle, Urinary Bladder", "result": 0.0125}, {"measurement": "Kp at 8 h", "setting": "in vivo [5]; beagle, Urinary Bladder", "result": 0.152}, {"measurement": "concentration at 15 min", "setting": "in vivo [5]; beagle, Tissue analysis, Brainstem", "result": 0.45, "unit": "ng/g"}, {"measurement": "concentration at 15 min", "setting": "in vivo [5]; beagle, Tissue analysis, Cortex", "result": 0.73, "unit": "ng/g"}, {"measurement": "concentration at 15 min", "setting": "in vivo [5]; beagle, Tissue level, Cortex, Brain", "result": 0.52, "unit": "ng/g"}, {"measurement": "concentration at 15 min", "setting": "in vivo [5]; beagle, Tissue level, Heart", "result": 0.49, "unit": "ng/g"}, {"measurement": "Average tissue concentration, Bladder", "setting": "in vivo [5]; both, beagle, 15 min", "result": 0.87, "unit": "ng/gm"}, {"measurement": "Average tissue concentration, Brainstem", "setting": "in vivo [5]; both, beagle, 15 min", "result": 0.57, "unit": "ng/gm"}, {"measurement": "Average tissue concentration, Cortex", "setting": "in vivo [5]; both, beagle, 15 min", "result": 0.80, "unit": "ng/gm"}, {"measurement": "Average tissue concentration, Heart", "setting": "in vivo [5]; both, beagle, 15 min", "result": 0.74, "unit": "ng/gm"}, {"measurement": "Average tissue concentration, Striatum", "setting": "in vivo [5]; both, beagle, 15 min", "result": 0.49, "unit": "ng/gm"}, {"measurement": "Tissue analysis, Brainstem", "setting": "in vivo [5]; both, beagle, 15 min", "result": 0.32}, {"measurement": "Tissue analysis, Cortex", "setting": "in vivo [5]; both, beagle, 15 min", "result": 0.52}, {"measurement": "Tissue level, Brain Stem", "setting": "in vivo [5]; both, beagle, 15 min", "result": 0.41, "unit": "ng/g"}, {"measurement": "Tissue level, Cortex, Brain", "setting": "in vivo [5]; both, beagle, 15 min", "result": 0.72, "unit": "ng/g"}, {"measurement": "Tissue level, Heart", "setting": "in vivo [5]; both, beagle, 15 min", "result": 0.67, "unit": "ng/g"}, {"measurement": "Kp [tissue]/[plasma], Liver", "setting": "in vivo [5]; both, beagle, 8 h", "result": 1.9047}, {"measurement": "Kp [tissue]/[plasma], Lungs", "setting": "in vivo [5]; both, beagle, 8 h", "result": 16.8289}]}
